Laboratory results published in article PMC6370995, “Phase I study of PF‐04895162, a Kv7 channel opener, reveals unexpected hepatotoxicity in healthy subjects, but not rats or monkeys: clinical evidence of disrupted bile acid homeostasis” (Pharmacology Research & Perspectives, 2019).
Where two headings read alike, the source gives them in different places.

How the values were obtained:
healthy subjects = test: Biomarkers of liver injury in residual plasma PK samples (miRNA122, total and fractionated bile acids); assay type: in vivo, human; conditions: 300 mg BID
Procedure: Methodology for the following in vitro assays and biomarker determinations were as follows: THLE/HepG2 72 hour cytotoxicity assays based on ATP depletion;14 mitochondrial functional assessment based on state 3/4 respiration determination in the presence of glutamate/malate15, 16 or fatty acid oxidation inhibition using palmitate;17 BSEP inhibition in vesicles using tritium labeled taurocholic acid (TCA);18 human hepatocyte imaging assay determination of cell loss, mitochondrial membrane permeability, glutathione content, and production of reactive oxygen species;19 miRNA‐122 determination using QuantiGene 2.0 miRNA;20 human multidrug resistance protein 3 inhibition/activation (MDR3, encoded by ABCB4) was determined at Biotranex based on biotransformation of d 9‐choline to d 9‐phosphatidylcholine in human hepatocytes;21 and fractionated bile acid determinations were conducted by LC‐MS/MS methodology.22 These various assays have been published in detail and used by us in previous investigative works.2, 3, 21 Examination of human sodium/taurocholate cotransporting polypeptide (NTCP, encoded by SLC10A1) was determined based on uptake of tritium labeled TCA in CHO cells and human multidrug resistance‐associated protein 3/4 (MRP3/4, encoded by ABCC3/4) transporter inhibition in vesicles obtained from HEK293 cells using tritium labeled estradiol 17 β‐D‐glucuronide and dehydroepiandrosterone sulfate as substrates, respectively.
Three of eight treated healthy subjects consented for additional analyses of residual plasma PK samples for biomarkers of liver injury (e.g., miRNA122, total, and fractionated bile acids).

BSEP = target: T1, BSEP (Homo sapiens, UniProt O95342); test: BSEP inhibition in vesicles using tritium labeled taurocholic acid; assay type: biochemical
T1 construct: host or cells: Hi5 insect cell membrane vesicles
T1 sequence (O95342 whole entry): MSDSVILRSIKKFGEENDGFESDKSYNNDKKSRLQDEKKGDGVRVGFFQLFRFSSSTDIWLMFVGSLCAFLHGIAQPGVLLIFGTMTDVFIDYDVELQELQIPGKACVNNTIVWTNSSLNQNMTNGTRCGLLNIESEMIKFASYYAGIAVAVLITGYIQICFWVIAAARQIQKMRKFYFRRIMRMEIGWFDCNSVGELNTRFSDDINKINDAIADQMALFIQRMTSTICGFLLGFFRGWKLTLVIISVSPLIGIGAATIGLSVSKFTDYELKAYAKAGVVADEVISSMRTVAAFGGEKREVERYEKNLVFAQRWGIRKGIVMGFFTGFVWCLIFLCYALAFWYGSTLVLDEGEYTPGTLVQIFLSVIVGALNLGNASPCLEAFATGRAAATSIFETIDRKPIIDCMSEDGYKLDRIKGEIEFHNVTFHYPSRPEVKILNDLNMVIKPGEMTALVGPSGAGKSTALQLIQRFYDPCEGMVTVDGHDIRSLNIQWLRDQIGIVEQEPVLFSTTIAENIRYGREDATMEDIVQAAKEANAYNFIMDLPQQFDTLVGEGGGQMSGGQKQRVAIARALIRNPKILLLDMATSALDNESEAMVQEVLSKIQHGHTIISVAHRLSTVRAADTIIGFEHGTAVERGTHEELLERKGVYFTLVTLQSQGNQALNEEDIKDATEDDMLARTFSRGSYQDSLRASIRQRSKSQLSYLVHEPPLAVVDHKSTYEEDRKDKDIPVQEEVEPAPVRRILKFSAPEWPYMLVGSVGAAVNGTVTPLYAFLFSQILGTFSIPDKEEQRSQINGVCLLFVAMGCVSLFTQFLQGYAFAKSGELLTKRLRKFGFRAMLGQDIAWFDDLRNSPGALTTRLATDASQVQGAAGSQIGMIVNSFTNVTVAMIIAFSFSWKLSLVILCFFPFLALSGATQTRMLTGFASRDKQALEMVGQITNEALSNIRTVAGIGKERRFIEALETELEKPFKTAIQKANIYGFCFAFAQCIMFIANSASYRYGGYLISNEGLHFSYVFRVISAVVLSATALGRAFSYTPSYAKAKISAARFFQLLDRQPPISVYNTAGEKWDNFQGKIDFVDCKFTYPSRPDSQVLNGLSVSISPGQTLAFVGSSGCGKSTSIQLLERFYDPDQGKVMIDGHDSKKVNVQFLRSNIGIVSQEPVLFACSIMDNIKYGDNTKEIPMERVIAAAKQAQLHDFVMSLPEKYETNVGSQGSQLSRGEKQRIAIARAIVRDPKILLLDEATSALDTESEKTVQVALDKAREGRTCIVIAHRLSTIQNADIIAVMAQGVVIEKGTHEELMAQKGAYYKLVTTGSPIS
Text: […]

[1] = test system: liver mitochondrial function; test: mitochondrial state 3/4 respiration in the presence of glutamate/malate; assay type: biochemical; conditions: N = 2
Text: […]

cynomolgus monkeys [2] = test: Escalating Dose Range-Finding and Maximum Tolerated Dose Study in Cynomolgus Monkeys; assay type: in vivo, cynomolgus monkey
human hepatocytes = test: human hepatocyte imaging assay (cell loss); assay type: cell-based; conditions: 48 hours; three assessments in two human hepatocyte lots (LBN and HU4165)
Text: […]

[3] = 7-Day Oral Toxicity Study in Monkeys; assay type: in vivo, cynomolgus monkey; conditions: both sexes, cynomolgus monkey, plasma, oral, Day 7, males and females, read-out: total Cmax
Procedure: (§1) Male and female cynomolgus monkeys were administered PF-04895162 twice daily for 7 days at approximately 12 hours apart, with the dose split equally between the 2 daily doses. The highest administered does was 200 mg/kg/day.

cynomolgus monkeys [4] = test: 7-Day Oral Toxicity Study in Monkeys; assay type: in vivo, cynomolgus monkey; conditions: for liver weight: males and females
Procedure: as §1

Q: With `O=C(Cc1ccc(F)cc1)Nn1c(C2CC2)nc2cc(F)ccc2c1=O` [PF‐04895162, N‐(2‐cyclopropyl‐7‐fluoro‐4‐oxoquinazolin‐3(4H)‐yl)‐2‐(4‐fluorophenyl)ethanamide] as the compound, how does the “plasma miRNA122, Subject 8” value (healthy subjects; Period 3) read?
A: The value was “elevated (>ULN) by Day 5”.

Q: What about the “fasting total bile acid levels of treated subjects” value (healthy subjects; Period 3, normal range <10 μmol/L) of the same compound?
A: Its value is “within the normal range”.

Q: What about the “hydrophobicity index of serum bile acids, Subject 6” value (healthy subjects; Day 7, AUC 0-12 h) of the same compound?
A: The value was 0.47.

Q: And the “hydrophobicity index of serum bile acids, Subject 8” value (healthy subjects; Day 7, AUC 0-12 h)?
A: The value was 0.40.

Q: What about the “hydrophobicity index of serum bile acids, Subject 10” value (healthy subjects; Day 7, AUC 0-12 h) of the same compound?
A: The value was 0.45.

Q: And the IC50 (BSEP; Hi5 vesicles, N = 4, geometric mean)?
A: The IC50 was 106 µM.

Q: What about the “ratio of systemic Cmax to BSEP vesicle IC50” value (BSEP; initially (single dose)) of the same compound?
A: Its value is 0.12 x.

Q: And the IC50 ([1]; read-out: IC50 for inhibition of glutamate/malate respiration)?
A: Its IC50 is about 10 µM.

Q: And the IC50 ([1]; read-out: IC50 for uncoupling activity)?
A: Its IC50 is over 100 µM.

Q: What about the “gross findings at necropsy, organ weights, liver histopathology, Dosing Phase 1” value (cynomolgus monkeys [2]; 25, 50, 100 and 200 mg/kg) of the same compound?
A: The value was “no other apparent effects of treatment”.

Q: And the “clinical signs, Dosing Phase 2” value (cynomolgus monkeys [2]; morning following dosing at 200 mg/kg/day, all 4 treated monkeys)?
A: The value was “hyperactivity, ataxia, tremors, and dilated pupils”.

Q: And the “clinical observation, Dosing Phase 1” value (cynomolgus monkeys [2]; single escalating NG doses, most prevalently at 100 and 200 mg/kg)?
A: The value was “Post-dosing vomitus”.

Q: What about the AC50 (human hepatocytes) of the same compound?
A: The AC50 was over 125 µM.

Q: And the Cmax ([3]; 150 mg/kg/day)?
A: Its Cmax is over 27000 ng/mL.

Q: And the Cmax ([3]; 200 mg/kg/day)?
A: Its Cmax is over 24000 ng/mL.

Q: What about the Treatment-related clinical findings (cynomolgus monkeys [4]; 150 and/or 200 mg/kg/day) of the same compound?
A: Its Treatment-related clinical findings is “decreased activity, ataxia, inappetence, stereotypy (hyper-reactivity, rigidity, jumping), tremors, loss of limb function, rapid eye movement, and eyelid partially/completely closed”.

Q: And the thymus gland weight (cynomolgus monkeys [4]; females, 150 and 200 mg/kg/day)?
A: Its thymus gland weight is “Decreased thymus gland weight”.

Q: What about the liver weight (cynomolgus monkeys [4]; 150 and 200 mg/kg/day) of the same compound?
A: Its liver weight is “Increased liver weight”.

Q: What about the liver weight (cynomolgus monkeys [4]; 150 and 200 mg/kg/day, listed as ICA-105665) of the same compound?
A: The liver weight was “increased liver weight”.

Q: And the brain weight (cynomolgus monkeys [4]; males, 150 and 200 mg/kg/day)?
A: Its brain weight is “dose-dependent increases in brain weight”.

Q: And the “clinical chemistry (liver effects)” value (cynomolgus monkeys [4]; twice daily for 7 days, up to 200 mg/kg/day)?
A: Its value is “no clinical chemistry changes suggestive of liver effects”.
